Tested on: KRAS-mutant PDC multicell tumor spheroid viability
Experiment: Anticancer human tumor 521955-158-R2-J5-PDC patient-derived pancreatic carcinoma cell line growth inhibition [KRAS2]
Settings: for viability, T/C: stronger effect = lower value
In short: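 Combination screen of spheroid viability in tumor-cell co-cultures with endothelial (HUVEC) and mesenchymal stem cell stroma. Each agent was tested in half-log dilutions, topping at clinical Cmax or at 10 microM without a known Cmax.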

[1] = curve of first compound, second compound 0.1 µM
[2] = curve of first compound, second compound 0.316 µM
[3] = curve of first compound, second compound 1 µM
[4] = curve of first compound, second compound 3.16 µM
[5] = curve of first compound, second compound 10 µM
[6] = second compound 0.1 µM, first compound 0.0316 µM
[7] = second compound 0.1 µM, first compound 0.1 µM
[8] = second compound 0.1 µM, first compound 0.316 µM
[9] = second compound 0.1 µM, first compound 1 µM
[10] = second compound 0.1 µM, first compound 3.16 µM
[11] = second compound 0.1 µM, first compound 10 µM
[12] = second compound 0.316 µM, first compound 0.0316 µM
[13] = second compound 0.316 µM, first compound 0.1 µM
[14] = second compound 0.316 µM, first compound 0.316 µM
[15] = second compound 0.316 µM, first compound 1 µM
[16] = second compound 0.316 µM, first compound 3.16 µM
[17] = second compound 0.316 µM, first compound 10 µM
[18] = second compound 1 µM, first compound 0.0316 µM
[19] = second compound 1 µM, first compound 0.1 µM
[20] = second compound 1 µM, first compound 0.316 µM
[21] = second compound 1 µM, first compound 1 µM
[22] = second compound 1 µM, first compound 3.16 µM
[23] = second compound 1 µM, first compound 10 µM
[24] = second compound 3.16 µM, first compound 0.0316 µM
[25] = second compound 3.16 µM, first compound 0.1 µM
[26] = second compound 3.16 µM, first compound 0.316 µM
[27] = second compound 3.16 µM, first compound 1 µM
[28] = second compound 3.16 µM, first compound 3.16 µM
[29] = second compound 3.16 µM, first compound 10 µM
[30] = second compound 10 µM, first compound 0.0316 µM
[31] = second compound 10 µM, first compound 0.1 µM
[32] = second compound 10 µM, first compound 0.316 µM
[33] = second compound 10 µM, first compound 1 µM
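Further: viability read after seven days of drug exposure.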

COc1cc2nccc(Oc3ccc(NC(=O)C4(C(=O)Nc5ccc(F)cc5)CC4)cc3)c2cc1OC + C=CC(=O)N1CCN(c2nc(=O)n(-c3c(C)ccnc3C(C)C)c3nc(-c4c(O)cccc4F)c(F)cc23)C(C)C1
IC50 [1]: 6550 nM
IC50 [2]: 5780 nM
IC50 [3]: 3980 nM
IC50 [4]: 2500 nM
IC50 [5]: 1240 nM
viability, T/C [6]: 114%
viability, T/C [7]: 122%
viability, T/C [8]: 113%
viability, T/C [9]: 124%
viability, T/C [10]: 78.4%
viability, T/C [11]: 33.5%
viability, T/C [12]: 107%
viability, T/C [13]: 111%
viability, T/C [14]: 117%
viability, T/C [15]: 108%
viability, T/C [16]: 66.8%
viability, T/C [17]: 34.7%
viability, T/C [18]: 109%
viability, T/C [19]: 119%
viability, T/C [20]: 114%
viability, T/C [21]: 112%
viability, T/C [22]: 54.2%
viability, T/C [23]: 32.9%
viability, T/C [24]: 83.7%
viability, T/C [25]: 109%
viability, T/C [26]: 94.4%
viability, T/C [27]: 75.4%
viability, T/C [28]: 44.2%
viability, T/C [29]: 20.9%
viability, T/C [30]: 55.2%
viability, T/C [31]: 64.1%
viability, T/C [32]: 58.7%
viability, T/C [33]: 53.9%
viability, T/C (second compound 10 µM, first compound 3.16 µM): 32.6%
viability, T/C (second compound 10 µM, first compound 10 µM): 10.4%

COc1cc(Nc2ncc3c(n2)-c2ccc(Cl)cc2C(c2c(F)cccc2OC)=NC3)ccc1C(=O)O
viability, T/C (compound 0.0316 µM): 50.2% [middle of 5 runs]
viability, T/C (compound 0.1 µM): 39.8% [middle of 5 runs]
viability, T/C (compound 0.316 µM): 45.3% [middle of 5 runs]
viability, T/C (compound 1 µM): 47.9% [middle of 5 runs]
viability, T/C (compound 3.16 µM): 46.5% [middle of 5 runs]
viability, T/C (compound 10 µM): 41.2% [middle of 5 runs]
IC50 (curve of compound): < 31.6 nM

CC(C)NCC(C(=O)N1CCN(c2ncnc3c2C(C)CC3O)CC1)c1ccc(Cl)cc1 (configuration not stated) + C=CC(=O)N1CCN(c2nc(OCC3CCCN3C)nc3c2CCN(c2cccc4cccc(C)c24)C3)CC1CC#N
IC50 (curve of first compound, second compound 0.0316 µM): > 10000 nM
IC50 [1]: > 10000 nM
IC50 [2]: > 10000 nM
IC50 [3]: > 10000 nM
IC50 [4]: < 31.6 nM
viability, T/C (second compound 0.0316 µM, first compound 0.0316 µM): 108%
viability, T/C (second compound 0.0316 µM, first compound 0.1 µM): 110%
viability, T/C (second compound 0.0316 µM, first compound 0.316 µM): 84.5%
viability, T/C (second compound 0.0316 µM, first compound 1 µM): 87.1%
viability, T/C (second compound 0.0316 µM, first compound 3.16 µM): 92.3%
viability, T/C (second compound 0.0316 µM, first compound 10 µM): 65.8%
viability, T/C [6]: 103%
viability, T/C [7]: 103%
viability, T/C [8]: 84.5%
viability, T/C [9]: 83.6%
viability, T/C [10]: 79.6%
viability, T/C [11]: 59.8%
viability, T/C [12]: 97.5%
viability, T/C [13]: 92.3%
viability, T/C [14]: 76.2%
viability, T/C [15]: 73.5%
viability, T/C [16]: 75.4%
viability, T/C [17]: 52.1%
viability, T/C [18]: 81.6%
viability, T/C [19]: 80.4%
viability, T/C [20]: 65.8%
viability, T/C [21]: 59.2%
viability, T/C [22]: 62.3%
viability, T/C [23]: 50.6%
viability, T/C [24]: 12.2%
viability, T/C [25]: 14.6%
viability, T/C [26]: 17%
viability, T/C [27]: 11.6%
viability, T/C [28]: 3.96%
viability, T/C [29]: 1.11%

CCN1CCN(Cc2ccc(Nc3ncc(F)c(-c4cc(F)c5nc(C)n(C(C)C)c5c4)n3)nc2)CC1 + CC1OCC2(CCN(c3cnc(Sc4ccnc(N)c4Cl)c(N)n3)CC2)C1N
IC50 [1]: > 1000 nM
IC50 [2]: > 1000 nM
IC50 [3]: > 1000 nM
IC50 [4]: > 1000 nM
IC50 [5]: > 1000 nM
viability, T/C (second compound 0.1 µM, first compound 0.00316 µM): 72.4%
viability, T/C (second compound 0.1 µM, first compound 0.01 µM): 87%
viability, T/C [6]: 59%
viability, T/C [7]: 61.5%
viability, T/C [8]: 73.7%
viability, T/C [9]: 66%
viability, T/C (second compound 0.316 µM, first compound 0.00316 µM): 66.5%
viability, T/C (second compound 0.316 µM, first compound 0.01 µM): 70.6%
viability, T/C [12]: 55.2%
viability, T/C [13]: 57.2%
viability, T/C [14]: 75.5%
viability, T/C [15]: 61.4%
viability, T/C (second compound 1 µM, first compound 0.00316 µM): 70.6%
viability, T/C (second compound 1 µM, first compound 0.01 µM): 59.5%
viability, T/C [18]: 58.2%
viability, T/C [19]: 60%
viability, T/C [20]: 62.2%
viability, T/C [21]: 68.8%
viability, T/C (second compound 3.16 µM, first compound 0.00316 µM): 66.8%
viability, T/C (second compound 3.16 µM, first compound 0.01 µM): 67.9%
viability, T/C [24]: 60.9%
viability, T/C [25]: 60.8%
viability, T/C [26]: 63.8%
viability, T/C [27]: 60.1%
viability, T/C (second compound 10 µM, first compound 0.00316 µM): 62.6%
viability, T/C (second compound 10 µM, first compound 0.01 µM): 71.8%
viability, T/C [30]: 63.5%
viability, T/C [31]: 61.7%
viability, T/C [32]: 57.4%
viability, T/C [33]: 50.2%

— PubChem BioAssay AID1963871 (Molecular Pharmacology Branch, DTP, NCI, 2024)
